The record followed here is patent US6864086B2, “Nitric oxide-scavenging system for culturing oocytes, embryos, or other cells” (Board of Supervisors of Louisiana State University and …, priority 1998, dated 2005).

Where “and” joins values, the source holds several entries; their conditions need not be identical. Equal entries are not always repeated. Marks after values point to notes of the source that are not given here.

The subject of the test is bovine embryos cultured in groups. Kind of test: Example 6: Hb (1 μg/ml) in mBECM-C in presence or absence of cumulus-granulosa cells. It is filed as cell-based. The method, then:
mBECM containing 10 μM β-mercaptoethanol was used to culture embryos, as described in J. Lim et al., “Roles of growth factors in the development of bovine embryos fertilized in vitro and cultured singly in a defined medium,” Reprod. Fertil. Dev., 8, 1199-1205 (1996). To culture individual 8-cell embryos we used mBECM supplemented with 1 ng/ml platelet derived growth factor type AB (PDGF; Upstate Biotechnology Inc., Lake Placid, N.Y.), 1 ng/ml transforming growth factor-β (TGF; R & D System, Minneapolis, Minn.), 50 ng/ml arachidonic acid (AA; Cayman Chemical Co., Ann Arbor, Mich.), 100 μM glutathione (GSH; Sigma Co.) and 1 mg/ml polyvinyl alcohol (PVA) (mBECM-S). mBECM to which 10% (v/v) FBS was added (mBECM-C) was used for co-culturing inseminated zygotes with CGs and for producing 8-cell embryos. Osmolarity of the medium was maintained within the range of 265-290 mOsm.
The bovine cumulus-oocyte complexes (COCs) used were collected in Madison, Wis. (BOMED, Inc.), and were shipped in 2-ml of maturation medium in a battery powered incubator via overnight express mail service. Oocytes matured during transit and arrived within 24 h after exposure to maturation medium, pre-equilibrated at 39° C. in 5% CO2 in air. At 22-24 h after exposure to the medium, the COCs were inseminated in vitro as described in J. Lim et al., “Intracytoplasmic glutathione concentration and the role of β-mercaptoethanol in preimplantation development of bovine embryos,” Theriogenology, 46, 429-439 (1996). At 18 h post-insemination, COCs were cultured in groups (30-35 embryos) in a 4-well multidish (Nunc, Roskilde, Denmark) containing 0.8-ml of mBECM-C. Embryos were dislodged from CGs at 36-48 h post-insemination.
In Example 1, embryos (83-85 per group) collected 18 h post-insemination were cultured in mBECM-C, to which 0, 0.008, or 0.04 mM SNP was added at 18 or 60 h post-insemination. In Example 2, 8-cell embryos (80 per group) were produced in a co-culture system containing CGs and mBECM-C, and then beginning at 60 h post-insemination were cultured singly in a defined culture medium (mBECM-S), to which 0, 0.0016, 0.008, or 0.04 mM of SNP (S-0501, Sigma Co.) was added. In Example 3 embryos, either uncleaved (n=99) or developed to the 2-cell stage (90), were collected 48 h post-insemination; and cleaved embryos, either developed to the morula stage (69) or degenerate (63) were collected 144 h post-insemination. NO metabolites were then measured in the embryos. In Example 4, three groups of 95 zygotes each were co-cultured with CGs in mBECM-C, to which 0, 1, or 10 μg/ml Hb (bovine, mainly methemoglobin, H-2500, Sigma Co.) was added. […] Inseminated oocytes (104 per group) were co-cultured with CGs in MBECM-C up to 192 h post-insemination; and Hb (1 μg/ml) was added to the medium at 18, 60, or 144 h post-insemination. In Example 6, inseminated oocytes (93 per group) were cultured in the presence or absence of CGs in mBECM-C to which either 0 or 1 μg/ml Hb was added. In Example 7, 8-cell embryos (100 per group), obtained after culture in mBECM-C supplemented with Hb (1 μg/ml), were cultured singly in mBECM-S, with or without Hb.
Oocytes or 8-cell embryos were randomly and equally allocated to each treatment group. In Examples 1, 2, and 4-7, oocytes or embryos that had developed to the 2-cell, 8-cell, >8-cell, 16-cell morula, and blastocyst stages were individually scored ‘1’ (developed) at 48, 60, 96, 120, 144 and 192 h post-insemination, respectively. […] Sums of the scores in each stage of development were evaluated by analysis of variance (ANOVA) using the general linear model (PROC-GLM) in the SAS program software. In Example 3, concentrations of NO metabolites in embryos were subjected to ANOVA. […] Differences were regarded as statistically significant where P values were less than 0.05.

Take hemoglobin [Hb]: under “Hb 1 μg/ml + CG”, the “Percent of Embryos Developed to 2-cell” value is listed as 77%; the “Percent of Embryos Developed to 8-cell” value was determined as 55%; the “Percent of Embryos Developed to 16-cell” value was 51% and 51^b %; the “Percent of Embryos Developed to Blastocyst” value was 33% and 33^b %. In addition, for the setting “Hb 1 μg/ml + CG”, the “Percent of Embryos Developed to Morula” value was 40% and 40^b %. Moreover, under “Hb 1 μg/ml only, absence of CG”, the “Percent of Embryos Developed to 2-cell” value is reported as 73%, the “Percent of Embryos Developed to 8-cell” value worked out at 52%, the “Percent of Embryos Developed to 16-cell” value is listed as 34^a % and the “Percent of Embryos Developed to Blastocyst” value is recorded as 19^a %. The “Percent of Embryos Developed to Morula” value (Hb 1 μg/ml only, absence of CG) is given as 27^ab %. Also, the “promotion of pre-hatching development of embryos” value (Hb 1 μg/ml, cultured in the absence of CG) is recorded as “not seen to promote”.
